Measurements as given in patent US20250296938A1, “Compounds that Interact with the Ras Superfamily for the Treatment of Cancers, Inflammatory Diseases, Rasopathies, and Fibrotic Disease” (SHY Therapeutics, LLC, priority 2018, published 2025).
Read-outs that look alike come from different tables or passages of the source.

What was measured:
Experiment in all cases: Ras GTP binding domain inhibition assay (Cy3-GTP/Cy5-GTP competition)
KRas G12D mutant = target: T1, KRas G12D mutant (Homo sapiens, UniProt P01116, G12D); conditions: at 20 μM
T1 construct: fused on or other part: His tag, used for capture on nickel-coated plates
In short: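 His-tagged Ras immobilized on nickel-coated wells in Tris buffer (pH 7.4 or 7.0) with 1 mM MgCl2, 1 mM DTT, 1% DMSO. Compound (20 μM, or serial dilution for IC50) incubated 3 hours at room temperature, ± Sos (residues 556-1049) in final hour. Bound 100 nM Cy3-/Cy5-GTP read after 45 minutes and washing.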

Rac-1 = Rac-1 (Homo sapiens, UniProt P63000)
In short: (§1)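 Compounds tested at 20 μM or in serial dilution for IC50 against nickel-captured His-tagged GTPase, 3 hours at room temperature, with or without His-Sos GEF added for last hour. Fluorescent GTP then added at 100 nM for 45 minutes; wells washed, bound label measured by fluorescence.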

Rho-A = Rho-A (Homo sapiens, UniProt P61586)
In short: as §1

[1] = with SOS, read-out: KRas G12D mutant + SOS: % inh.
[2] = without SOS, read-out: KRas G12D mutant: % inh.
[3] = with SOS, read-out: Rac-1 + SOS: % inh.
[4] = without SOS, read-out: Rac-1: % inh.
[5] = with SOS, read-out: Rho-A + SOS: % inh.
[6] = without SOS, read-out: Rho-A: % inh.

inhibition at 20 µM (KRas G12D mutant; [1]) [%]	inhibition at 20 µM (KRas G12D mutant; [2]) [%]	inhibition at 20 µM (Rac-1; [3]) [%]	inhibition at 20 µM (Rac-1; [4]) [%]	inhibition at 20 µM (Rho-A; [5]) [%]	inhibition at 20 µM (Rho-A; [6]) [%]	SMILES
51 to 75	1 to 25	51 to 75	51 to 75	76 to 100	51 to 75	CO[C@H]1CCC(Nc2nc(-c3nccn3C)nc3sc(-c4ccn(C)n4)c(-c4ccccc4)c23)C1 (stereo partly drawn) [drawing 995]
1 to 25	26 to 50	26 to 50	1 to 25	0	26 to 50	Cn1ccc(-c2sc3nc(-c4nccn4C)nc(NCC4CCOC4)c3c2-c2ccccc2)n1 (stereo not drawn) [drawing 996]
1 to 25	1 to 25	26 to 50	26 to 50	51 to 75	0	Cn1ccc(-c2sc3nc(-c4nccn4C)nc(NC4CCOCC4)c3c2-c2ccccc2)n1 [drawing 997]
1 to 25	1 to 25	26 to 50	26 to 50	1 to 25	0	COC1CCN(c2nc(-c3nccn3C)nc3sc(-c4ccn(C)n4)c(-c4ccccc4)c23)C1 (stereo not drawn) [drawing 998]
26 to 50	1 to 25	1 to 25	1 to 25	26 to 50	0	COCC(C)Nc1nc(-c2nccn2C)nc2sc(-c3ccn(C)n3)c(-c3ccccc3)c12 (stereo not drawn) [drawing 999]
26 to 50	51 to 75	26 to 50	26 to 50	0	1 to 25	COCCCN(C)c1nc(-c2nccn2C)nc2sc(-c3ccn(C)n3)c(-c3ccccc3)c12 [drawing 1000]
26 to 50	1 to 25	26 to 50	1 to 25	0	0	COCCCNc1nc(-c2nccn2C)nc2sc(-c3ccn(C)n3)c(-c3ccccc3)c12 [drawing 1001]
51 to 75	1 to 25	1 to 25	0	1 to 25	0	COc1cccc(-c2sc3nc(-c4nccn4C)nc(N4CCC(OC)C4)c3c2-c2cscn2)c1 (stereo not drawn) [drawing 1002]
1 to 25	0	0	0	26 to 50	0	COc1ccc(-c2c(-c3ccn(C)n3)sc3nc(-c4nccn4C)nc(N4CCC(OC)C4)c23)cc1 (stereo not drawn) [drawing 1003]
1 to 25	0	0	0	1 to 25	1 to 25	COCC(C)Nc1nc(-c2nccn2C)nc2sc(-c3ccn(C)n3)c(-c3ccc(OC)cc3)c12 (stereo not drawn) [drawing 1004]
1 to 25	0	0	0	51 to 75	1 to 25	COCCCNc1nc(-c2nccn2C)nc2sc(-c3ccn(C)n3)c(-c3ccc(OC)cc3)c12 [drawing 1005]
1 to 25	26 to 50	26 to 50	1 to 25	51 to 75	1 to 25	COCCNc1nc(-c2nccn2C)nc2sc(-c3cc(OC)ccc3Cl)c(-c3ccccc3)c12 [drawing 1006]
76 to 100	1 to 25	26 to 50	51 to 75	51 to 75	51 to 75	COCCNc1nc(-c2nccn2C)nc2sc(-c3cccc(OC)c3Cl)c(-c3ccccc3)c12 [drawing 1007]
76 to 100	26 to 50	26 to 50	26 to 50	0	0	COCCNc1nc(-c2cn(C)cn2)nc2sc(-c3ccccc3Cl)c(-c3ccc(OC)cc3)c12 [drawing 1008]
51 to 75	1 to 25	51 to 75	26 to 50	26 to 50	26 to 50	COCCNc1nc(-c2nccn2C)nc2sc(-c3cccc(OC)c3Cl)c(-c3ccc(OC)cc3)c12 [drawing 1009]
76 to 100	51 to 75	26 to 50	1 to 25	0	0	COCCNc1nc(-c2nccn2C)nc2sc(-c3cccc(OC)c3)c(-c3ccc(OC)cc3)c12 [drawing 1010]
76 to 100	26 to 50	26 to 50	1 to 25	0	0	COCCNc1nc(-c2nccn2C)nc2sc(-c3ccccc3Cl)c(-c3ccc(OC)cc3)c12 [drawing 1011]
26 to 50	1 to 25	1 to 25	1 to 25	1 to 25	26 to 50	COCCNc1nc(-c2nccn2C)nc2sc(-c3cc(OC)ccc3Cl)c(-c3ccc(OC)cc3)c12 [drawing 1012]
1 to 25	1 to 25	26 to 50	1 to 25	1 to 25	1 to 25	COc1cccc(-c2csc3c(O)nc(-c4nccn4C)nc23)c1Cl [drawing 1013]

Further lines, the molecule ahead of its results:

SMILES	inhibition at 20 µM (KRas G12D mutant; [1]) [%]	inhibition at 20 µM (KRas G12D mutant; [2]) [%]	inhibition at 20 µM (Rac-1; [3]) [%]	inhibition at 20 µM (Rac-1; [4]) [%]	inhibition at 20 µM (Rho-A; [5]) [%]	inhibition at 20 µM (Rho-A; [6]) [%]
Cc1cc(Cn2ccnc2-c2nc(O)c3scc(-c4ccccn4)c3n2)on1 [drawing 981]	26 to 50	51 to 75	51 to 75	51 to 75	26 to 50	1 to 25
Oc1nc(-c2cn(-c3ccccc3)cn2)nc2c(-c3ccccn3)csc12 [drawing 982]	1 to 25	1 to 25	1 to 25	26 to 50	26 to 50	0
Oc1nc(-c2cn3cccnc3n2)nc2c(-c3ccccn3)csc12 [drawing 983]	1 to 25	1 to 25	0	0	1 to 25	26 to 50
COC1CCN(c2nc(-c3nccn3C)nc3sc(-c4ccccc4Cl)c(-c4cscn4)c23)C1 (stereo not drawn) [drawing 984]	51 to 75	51 to 75	76 to 100	51 to 75	51 to 75	0
COc1cccc(Cn2ccnc2-c2nc(O)c3scc(-c4ccccn4)c3n2)c1 [drawing 985]	51 to 75	76 to 100	76 to 100	76 to 100	51 to 75	26 to 50
Oc1nc(-c2nccn2Cc2ccccn2)nc2c(-c3ccccn3)csc12 [drawing 986]	51 to 75	76 to 100	51 to 75	76 to 100	51 to 75	51 to 75
COCCn1ccnc1-c1nc(O)c2scc(-c3ccccn3)c2n1 [drawing 987]	51 to 75	76 to 100	76 to 100	76 to 100	51 to 75	51 to 75
Cn1ccnc1-c1nc(O)c2scc(-c3ccccn3)c2n1 [drawing 988]	51 to 75	76 to 100	76 to 100	51 to 75	76 to 100	51 to 75
COCC(C)Nc1nc(-c2nccn2C)nc2sc(-c3ccccc3Cl)c(-c3cscn3)c12 (stereo not drawn) [drawing 989]	51 to 75	51 to 75	26 to 50	26 to 50	26 to 50	26 to 50
COCC(C)Nc1nc(-c2nccn2C)nc2sc(-c3cccc(OC)c3)c(-c3cscn3)c12 (stereo not drawn) [drawing 990]	51 to 75	51 to 75	1 to 25	26 to 50	26 to 50	26 to 50
COC1CCN(c2nc(-c3nccn3C)nc3sc(-c4ccn(C)n4)c(-c4ccccc4)c23)CC1 [drawing 991]	26 to 50	26 to 50	26 to 50	26 to 50	0	0
Cn1ccc(-c2sc3nc(-c4nccn4C)nc(N4CCC5(CCOC5)C4)c3c2-c2ccccc2)n1 (stereo not drawn) [drawing 992]	1 to 25	26 to 50	26 to 50	26 to 50	76 to 100	0
CO[C@@H]1CCC(Nc2nc(-c3nccn3C)nc3sc(-c4ccn(C)n4)c(-c4ccccc4)c23)C1 (stereo partly drawn) [drawing 994]	26 to 50	26 to 50	26 to 50	26 to 50	76 to 100	0
